Test results as given in patent publication US6426356B1, “Imidazoethyl thiophenes” (Ortho-McNeil Pharmaceutical, Inc., priority 1998, dated 2002).
Like-named read-outs stand apart in the source and are kept apart here.

How the values were obtained:
[1] = target: T1, Alpha-2D Adrenergic Receptor (Rattus norvegicus, UniProt P22909); assay: Alpha-2D adrenergic receptor binding assay (3H-para-aminoclonidine, rat cortex synaptic membranes)
T1 construct: aliquots of the synaptic membrane fraction, the ligand ^3H-para-aminoclonidine and test drug; from tissue; host or cells: rat brain cortex synaptic membrane fraction (male Wistar rats)
T1 sequence (P22909 1-465): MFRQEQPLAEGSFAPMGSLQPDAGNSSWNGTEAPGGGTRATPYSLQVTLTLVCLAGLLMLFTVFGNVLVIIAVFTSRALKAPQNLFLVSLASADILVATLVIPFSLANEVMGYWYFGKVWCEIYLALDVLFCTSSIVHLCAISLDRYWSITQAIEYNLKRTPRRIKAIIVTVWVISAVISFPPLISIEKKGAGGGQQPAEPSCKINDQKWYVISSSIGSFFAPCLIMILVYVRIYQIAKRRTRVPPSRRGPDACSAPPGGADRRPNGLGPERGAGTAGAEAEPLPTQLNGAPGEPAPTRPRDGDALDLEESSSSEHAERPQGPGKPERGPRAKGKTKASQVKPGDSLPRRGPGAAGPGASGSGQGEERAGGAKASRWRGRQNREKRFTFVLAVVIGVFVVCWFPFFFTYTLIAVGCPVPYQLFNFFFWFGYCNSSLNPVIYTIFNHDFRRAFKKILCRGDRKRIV
Experimental: Alpha-2D Adrenergic Receptor Binding Assay
Male, Wistar rats (150-250 g, VAF, Charles River, Kingston, N.Y.) are sacrificed by cervical dislocation and their brains removed and placed immediately in ice cold HEPES buffered sucrose. The cortex is dissected out and homogenized in 20 volumes of HEPES sucrose in a Teflon™-glass homogenizer. The homogenate is centrifuged at 1000 g for 10 min, and the resulting supernatant centrifuged at 42,000 g for 10 min. The resulting pellet is resuspended in 30 volumes of 3 mM potassium phosphate buffer, pH 7.5, preincubated at 25 ° C. for 30 min and recentrifuged. The resulting pellet is resuspended as described above and used for the receptor binding assay. […] The incubation is terminated by filtration of the tube contents through glass fiber filter sheets. Following washing of the sheets with 10 mM HEPES buffer, the adhering radioactivity is quantified by liquid scintillation spectrometry.
Binding of the test drug to the receptor is determined by comparing the amount of radiolabeled ligand bound in control tubes without drug to the amount of radiolabeled ligand bound in the presence of the drug. Dose-response data are analyzed with LIGAND, a nonlinear curve fitting program designed specifically for the analysis of ligand binding data.

[2] = test system: mouse acetylcholine bromide-induced abdominal constriction; assay: Mouse acetylcholine bromide-induced abdominal constriction assay (MAIT); type: in vivo; details: po; % inhibition of abdominal constriction; dose not given
Experimental: Mouse Acetylcholine Bromide-Induced Abdominal Constriction Assay (MAIT)
The mouse acetylcholine bromide-induced abdominal constriction assay, as described by Collier et al. in Brit. […] The test drugs or appropriate vehicle were administered orally (p.o.) and 30 minutes later the animal received an intraperitoneal (i.p.) injection of 5.5 mg/kg acetylcholine bromide (Matheson, Coleman and Bell, East Rutherford, N.J.). The mice were then placed in groups of three into glass bell jars and observed for a ten minute observation period for the occurrence of an abdominal constriction response (defined as a wave of constriction and elongation passing caudally along the abdominal wall, accompanied by a twisting of the trunk and followed by extension of the hind limbs). The percent inhibition of this response to a nociceptive stimulus (equated to % analgesia) was calculated as follows: The % Inhibition of response, i.e., % analgesia is equal to the difference between the number of control animals responding and the number of drug-treated animals responding times 100 divided by the number of control animals responding.
At least 15 animals were used for control and in each of the drug treated groups.

[3] = test system: mouse acetylcholine bromide-induced abdominal constriction; assay: as above; type: in vivo; details: sc; % inhibition of abdominal constriction; dose not given
[4] = 3H-para-aminoclonidine, rat cortex membranes, read-out: α2D Ki

Structure (SMILES) | Ki [1, 4] [nM] | MAIT [2] [po] | Ki [1] [nM] | MAIT [3] [sc]
Cc1ccsc1CCc1c[nH]cn1 [Cp-1] | 0.075 | 93 | – | –
c1csc(CCc2c[nH]cn2)c1 [Cp-2] | – | 60 | 0.1 | –
c1nc(CCc2ccsc2)c[nH]1 [Cp-3] | – | 53 | 0.53 | –
Cc1ccc(CCc2c[nH]cn2)s1 [Cp-4] | – | 7 | 1.1 | –
CCc1sccc1CCc1c[nH]cn1 [Cp-5] | 1.8 | 67 | – | –
CCc1ccc(CCc2c[nH]cn2)s1 [Cp-6] | – | 20 | 1.2 | –
CCc1csc(CCc2c[nH]cn2)c1 [Cp-8] | – | 20 | 0.15 | –
Cc1ccc(/C=C/c2c[nH]cn2)s1 [Cp-12] | – | 7 | 22 | –
Cc1ccsc1/C=C/c1c[nH]cn1 [Cp-13] | – | – | 3.2 | –
Clc1ccc(/C=C/c2c[nH]cn2)s1 [Cp-14] | – | 20 | 17 | –
Brc1csc(C=Cc2c[nH]cn2)c1 [Cp-16] | – | 20 | 31 | –
CCc1ccc(/C=C/c2c[nH]cn2)s1 [Cp-17] | – | – | 22 | 13
CCc1csc(C=Cc2c[nH]cn2)c1 [Cp-18] | – | – | 26 | 53
